# Patent US8153658B2, “Piperidine derivative or salt thereof” (Astellas Pharma, Inc., priority 2006, dated 2012)
# Where a name gives a salt, the structure may show the parent alone.
# Legend:
# CYP2D6 [1] = target: T1, CYP2D6 (Homo sapiens, UniProt P10635); conditions: reported, Non-Patent Document 4; cited from earlier work
# human CaSR = target: T2, human CaSR (Homo sapiens, UniProt P41180); experiment: Human calcium sensing receptor (CaSR) agonism test (Fluo-3 / FLIPR); type: cell-based; conditions: HEK 293 cell stably expressing human CaSR; 0.5 mM Ca2+; 2 mM Ca2+ group = 100%; read-out: EC50 (compound concentration showing 50% human CaSR agonistic activity)
# T2 construct: a human CaSR open reading frame (ORF) was contained in the pcDNA3.1/Zeo(+) vector; expressed in transfected cells
# T2 sequence (P41180 20-1078): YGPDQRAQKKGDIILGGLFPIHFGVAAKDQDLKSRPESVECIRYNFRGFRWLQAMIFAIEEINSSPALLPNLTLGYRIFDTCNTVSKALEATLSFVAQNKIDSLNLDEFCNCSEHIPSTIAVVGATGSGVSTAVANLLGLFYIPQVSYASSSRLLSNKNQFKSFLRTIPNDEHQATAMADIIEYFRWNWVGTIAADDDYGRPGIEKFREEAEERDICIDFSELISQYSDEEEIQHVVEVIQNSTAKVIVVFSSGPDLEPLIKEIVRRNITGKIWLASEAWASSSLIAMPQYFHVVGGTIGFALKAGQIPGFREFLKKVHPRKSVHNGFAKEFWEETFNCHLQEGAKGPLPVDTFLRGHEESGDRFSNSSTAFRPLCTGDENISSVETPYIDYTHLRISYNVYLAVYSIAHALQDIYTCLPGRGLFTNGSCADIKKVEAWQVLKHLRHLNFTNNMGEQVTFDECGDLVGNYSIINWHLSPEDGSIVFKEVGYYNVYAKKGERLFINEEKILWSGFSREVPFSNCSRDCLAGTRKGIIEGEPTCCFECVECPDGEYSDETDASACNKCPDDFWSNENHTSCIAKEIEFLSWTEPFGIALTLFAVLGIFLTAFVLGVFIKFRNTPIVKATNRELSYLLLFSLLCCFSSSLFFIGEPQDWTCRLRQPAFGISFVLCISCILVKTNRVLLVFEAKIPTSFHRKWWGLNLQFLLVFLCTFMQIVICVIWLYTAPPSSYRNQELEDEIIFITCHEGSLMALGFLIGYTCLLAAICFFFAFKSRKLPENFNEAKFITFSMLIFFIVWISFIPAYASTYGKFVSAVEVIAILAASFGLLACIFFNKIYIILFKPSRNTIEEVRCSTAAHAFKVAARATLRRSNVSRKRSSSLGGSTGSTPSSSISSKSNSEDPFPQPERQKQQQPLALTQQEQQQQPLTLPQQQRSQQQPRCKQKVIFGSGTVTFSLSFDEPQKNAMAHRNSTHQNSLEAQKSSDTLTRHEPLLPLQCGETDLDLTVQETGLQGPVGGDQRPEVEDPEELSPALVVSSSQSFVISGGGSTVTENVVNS
# Excerpt: Test 1. Human calcium sensing receptor (CaSR) agonism test
# 1) Preparation of Human CaSR Expression Vector
# A DNA fragment coding for human CaSR was cloned in the standard method.
# Illustratively, using 203 to 2387 of NM_000388 as a DNA fragment D4, and 2210 to 3633 as a DNA fragment B2, they were amplified using a human kidney cDNA (manufactured by Invitrogen) as the template and using a DNA polymerase (a registered trade name: Pyrobest, manufactured by Takara Bio), and respectively cloned into a pCR2.1 vector using a pCR2.1-Topo vector (manufactured by Invitrogen). Next, the DNA fragments prepared by digesting the pCR2.1-D4 with SpeI and XbaI were inserted into the same sites of pcDNA3.1/Zeo(+) vector. Successively, the fragments prepared by digesting pCR2.1-B2 with SacI and XbaI were inserted into the SacI and XbaI sites of previously prepared pcDNA3.1/Zeo(+)-D4(SpeI-XbaI), thereby obtaining a human CaSR expression vector pcDNA3.1/Zeo(+)-hCaSR in which a human CaSR open reading frame (ORF) was contained in the pcDNA3.1/Zeo(+) vector.
# 2) Preparation of Human CaSR Expression Cell
# The human CaSR expression vector was transferred into a HEK 293 cell using a transfection reagent (registered trademark: FuGene 6, manufactured by Roche Diagnostics). After the gene transfer, this was cultured in a DMEM (manufactured by Invitrogen) medium containing 40 μg/ml Zeocin (registered trademark, manufactured by Invitrogen) and a 10% fetal bovine serum at 37° C. for 2 weeks in the presence of 5% CO2, thereby obtaining Zeocin-resistant clones. A human CaSR stably expressing HEK 293 clone was obtained from these clones by selection using the responsiveness to extracellular Ca^2+ as an index.
# 3) Human CaSR Agonism Test
# The HEK 293 cell stably expressing human CaSR was inoculated into a poly-D-lysine-coated black clear bottom 96 well plate (manufactured by BD Biosciences). Hanks' balanced salt solution (HBSS) (Ca^2+ (−), Mg^2+ (−), manufactured by Invitrogen) containing a 20 mM HEPES (2-[4-(2-hydroxyethyl)-1-piperazinyl]ethanesulfonic acid) buffer (pH 7.4), 2.5 mM of probenecid (manufactured by Sigma), and 0.1% of bovine serum albumin was prepared as a washing buffer. After the inoculation and the subsequent overnight culturing, the medium was discarded, the washing buffer supplemented with 1 mM CaCl2 and 10 μM Fluo-3 AM (trade name, manufactured by DOJINDO) was added thereto in 100 μl per well portions, and then the incubation was carried out at 37° C. for 1 hour in the presence of 5% CO2. This was washed twice with 200 μl of the washing buffer, replaced by 100 μl of the washing buffer supplemented with 0.5 mM CaCl2 and allowed to stand still for 10 minutes, and then the responsiveness to each compound to be evaluated was detected using a plate reader for fluorometry image analysis use (registered trademark: FLIPR, manufactured by Molecular Devices). In this connection, the compound to be evaluated was used by optionally diluting with the washing buffer supplemented with 0.5 mM Ca^2+.
# The human CaSR agonistic activity strength of each compound to be evaluated was calculated by defining the solvent group as 0% and the 2 mM of Ca^2+ in the final concentration group as 100%, and the compound concentration showing 50% activity (EC50) was calculated from a concentration-activity curve by the method of least squares.
# [2] = Measurement of rat plasma calcium concentration; type: in vivo; conditions: po, 2 h, read-out: Rat plasma calcium concentration reducing ratio (%) 2 hours after administration (3 mg/kg)
# Procedure: Test 2. Measurement of Rat Plasma Calcium Concentration and Plasma PTH Concentration
# The compounds of the present invention were administered to rats, and their influences upon the plasma calcium concentration and the plasma PTH concentration were examined. The test was carried out by single oral administration of the compounds of the present invention and the control compounds to 5 to 6 normal male rats, or male rats with renal failure, respectively As a vehicle group, 0.5% of a methyl cellulose (MC) solution was administered at a dose of 5 ml/kg. As a reference compound, cinacalcet was dissolved in the MC solution and administered at a dose of 3 mg/kg. Each of the compounds of the present invention was dissolved or suspended in the MC solution, and administered at a dose of 1, 3 or 10 mg/kg.
# Blood samples were collected from the orbital venous plexus under ether anesthesia before the administration and 2 hours, 4 hours, or 8 hours in some cases, after the administration, and the plasma calcium concentration was measured using Calcium E-Test Wako (manufactured by Wako Pure Chemical Industries), and the plasma PTH concentration was measured using a Rat Intact PTH ELISA Kit (manufactured by Immutopics).
# CYP2D6 [3] = target: T1, CYP2D6; experiment: Human CYP2D6 inhibition test; type: biochemical; parameters: purchased BD Gentest 456217; conditions: CYP2D6 7.5 pmol/mL; fluorescence substrate AMMC 1.5 μM; 37° C. 30 minutes
# Procedure: Test 3. Human CYP2D6 Inhibition Test
# Inhibitory activity evaluation for CYP2D6 was carried out by measuring it in accordance, roughly, with a reference (“Drug Metabolism and Disposition”, 2001, vol. 29, p. 1196-1200).
# Final concentrations of the reagents in the enzyme reaction solution were respectively set to CYP2D6=7.5 pmol/mL (manufactured by BD Gentest, Catalog No. 456217), reduced type nicotinamide adenine dinucleotide phosphate (NADPH) regeneration system (0.0081 mM nicotinamide adenine dinucleotide phosphate (NADP+), 0.41 mM glucose-6-phosphate, 0.41 mM MgCl2, 0.4 units glucose-6-phosphate dehydrogenase), and a fluorescence substrate AMMC=1.5 μM, 100 mM potassium phosphate buffer (pH 7.4). Each compound was made into a 50% acetonitrile solution and added to the enzyme reaction solution (acetonitrile final concentration 2.5%). The enzyme reaction was carried out at 37° C. for 30 minutes, the reaction was stopped using a stopping liquid (0.1 M tris(hydroxymethyl)aminomethane (Tris-base):acetonitrile=20:80), and the fluorescence intensity was then measured. The concentration showing 50% inhibition (IC50) was calculated from the thus obtained fluorescence intensity, by defining the enzyme activity at a time of no compound addition as 100%.
# T1 sequence (P10635 whole entry): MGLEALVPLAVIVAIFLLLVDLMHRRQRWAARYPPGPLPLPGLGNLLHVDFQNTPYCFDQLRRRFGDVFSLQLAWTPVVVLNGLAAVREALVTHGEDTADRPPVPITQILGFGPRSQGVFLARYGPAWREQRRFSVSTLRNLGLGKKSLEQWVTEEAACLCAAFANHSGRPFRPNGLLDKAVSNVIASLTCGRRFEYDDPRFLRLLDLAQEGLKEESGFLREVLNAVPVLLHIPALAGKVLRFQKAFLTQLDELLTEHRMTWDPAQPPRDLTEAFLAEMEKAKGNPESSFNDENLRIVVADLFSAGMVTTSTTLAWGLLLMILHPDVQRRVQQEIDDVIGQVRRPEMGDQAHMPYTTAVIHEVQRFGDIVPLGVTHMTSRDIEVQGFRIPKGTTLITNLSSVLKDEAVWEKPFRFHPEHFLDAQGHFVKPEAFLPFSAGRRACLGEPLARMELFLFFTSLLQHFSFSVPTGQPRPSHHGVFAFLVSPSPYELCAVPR
Compound,activity to inhibit CYP2D6 (in words) (CYP2D6 [1]),EC50 (human CaSR),inhibition in vivo at 3 mg/kg [2],IC50 (CYP2D6 [3])
C[C@@H](NCCCc1cccc(C(F)(F)F)c1)c1cccc2ccccc12 [cinacalcet],strong activity to inhibit CYP2D6,–,–,–
"C[C@@H](NCC1CCN(C(=O)Oc2ccc(C(=O)O)cc2)CC1c1ccccc1)c1cccc2ccccc12 (stereo partly drawn) [Example 25, 4-({[4-({[(1R)-1-(1-naphthyl)ethyl]amino}methyl)-3-phenylpiperidin-1-yl]carbonyl}oxy)benzoic acid hydrochloride]",–,13 nM,17%,≥ 20000 nM
